Measured values reported in US20210308028A1, “Compositions and Methods for Maintaining and Protecting Tissue Integrity and Barrier Function” (Colgate-Palmolive Company, priority 2020, published 2021).

Assays:
[1] = tested on: B11 gingival keratinocytes challenged with P. gingivalis; test: Paracellular permeability to FITC-dextran with P. gingivalis challenge; type: cell-based, human; conditions: P. gingivalis MOI=10^4; over 48 h; FIGS. 16, 19, 22
Method: (§1) The ability of test composition samples to enhance epithelial barrier integrity was assessed by monitoring the paracellular transport of FITC-conjugated 4.4-kDa dextran (FD-4; Sigma-Aldrich Canada Ltd.) across the keratinocyte layer. Briefly, B11 cells were cultured on Transwell filters, and FD-4 ([…] in culture medium) was added in the apical compartment in the presence of the test composition under investigation. Fluorescence in the basolateral compartment was measured at 0, 4, 8, 24, and 48 h using a Synergy 2 microplate reader (BioTek Instrument, Winooski, Vt., USA).
(§2) Briefly, B11 cells were cultured on Transwell™ filters, and FD-4 (1 mg/mL in culture medium) was added to the apical compartment in the presence of the test compounds. The presence of FD-4 in the basolateral compartment was determined at 0, 2, 6, 24, and 48 h by measuring the fluorescence (RUF; excitation wavelength 495 nm; emission wavelength 525 nm) using a Synergy 2 microplate reader.

[2] = tested on: zonula occludens-1 and occludin in gingival keratinocytes challenged with P. gingivalis; test: Immunofluorescence of tight junction proteins with P. gingivalis challenge; type: cell-based, human; conditions: Example 4, FIGS. 17, 20, 23
Method: (§3) Gingival keratinocytes treated as described above for 12 h were immunostained for zonula occludens-1 and occludin, two tight junction proteins. Briefly, the cells were fixed in 50 mM phosphate-buffered saline (pH 7.2) (PBS) containing 4% paraformaldhehyde for 20 min, permeabilized with 0.1% Triton X-100 for 10 min, and blocked in 3% non-fat milk in 20 mM Tris-HCl (pH 8), 150 mM NaCl, and 0.5% Tween 20 for 40 min. The cells were incubated with 2.5 μg/mL of either occludin antibody-Alexa Fluor® 488 conjugate or ZO-1 antibody-Alexa Fluor® 594 conjugate in blocking buffer overnight at 4° C. After washing with PBS, the cells were then treated with ProLong® Diamond antifade (Life Technologies). The slides were sealed with nail polish and were kept in the dark at 4° C. The localization of tight junction proteins in B11 cells was visualized using an Olympus FSX100 fluorescence microscope and FSX-BSW imaging software (Olympus, Tokyo, Japan). Immunofluorescent staining of tight junction proteins is a qualitative assay.
The gingival epithelium, a stratified squamous tissue that acts as an interface between the external environment and the underlying connective tissue, plays an active role in maintaining oral health. […] The capability of test compositions to protect oral tissue from perio-pathogenic bacteria caused tissue damage was assessed using the methodology set out in Example 2. […]

[3] = tested on: hemolytic activity of P. gingivalis; test: Hemolytic assay with sheep red blood cells; type: cell-based, Porphyromonas gingivalis; conditions: Example 6, FIGS. 37, 40, 43; red blood cells from sheep
Method: A hemolytic assay is performed as follows. Fresh sheep red blood cells (Nutri-Bact, Terrebonne, QC, Canada) were harvested from heparinized whole blood by centrifugation (600×g for 5 min), washed three times in phosphate-buffered saline (PBS; pH 7.0), and suspended in PBS to a concentration of 2% (v/v). Equal volumes (1 mL) of red blood cells, P. gingivalis cells (OD660=1.0 in PBS), and two-fold serial dilutions of the Test composition were mixed together. PBS replaced the bacteria in the negative control. Following an incubation at 37° C. for 4 h, the mixtures were incubated at 4° C. for 1 h and were then centrifuged (10 000×g for 5 min) prior to recording the absorbance of the supernatants at 540 nm (A540). 1 ml P. gingivalis+1 ml of red blood cells+1 ml of test compounds used in the hemolysis assay are incubated at 37° C. for to 4 h. All constituents are added at the same time. […]
Fresh sheep red blood cells (Nutri-B act, Terrebonne, QC, Canada) were harvested from heparinized whole blood by centrifugation (600×g for 5 min), washed three times in phosphate-buffered saline (PBS; pH 7.0), and suspended in PBS to a concentration of 2% (v/v). […] Following an incubation at 37° C. for 4 h, the mixtures were incubated at 4° C. for 1 h and were then centrifuged (10 000×g for 5 min) prior to recording the absorbance of the supernatants at 540 nm (A540).

[4] = tested on: P. gingivalis collagenase; test: Proteolytic assay: collagen DQ degradation by P. gingivalis culture supernatant; type: biochemical, Porphyromonas gingivalis; conditions: Example 6, FIGS. 35, 38, 41; over 5 hours
Method: To determine the effects of formulations tested on the proteinase activity of P. gingivalis, a 48-h culture was centrifuged at 10 000×g for 10 min. […] The fluorescence corresponding to collagen degradation was monitored using a Synergy 2 microplate reader, with the excitation and emission wavelengths set at 495 nm and 525 nm, respectively. Test compounds or the fluorescent substrate alone were used as controls. For the proteolytic assay, the following ratio was used: 40% P. gingivalis supernatant+40% test compounds+20% DQ collagen. […]
To determine the effects of the Dual Zinc plus Arginine aqueous solution and dentifrice on the proteinase activity of P. gingivalis, a 48-h culture was centrifuged at 10 000×g for 10 min. Assay mixtures containing equal volumes of P. gingivalis culture supernatant, the fluorescent substrate collagen DQ™ (100 μg/mL; Molecular Probes, Eugene, Oreg., USA), and the Dual Zinc […] The fluorescence corresponding to collagen degradation was monitored using a Synergy 2 microplate reader, with the excitation and emission wavelengths set at 495 nm and 525 nm, respectively. Test compounds or the fluorescent substrate alone were used as controls. Leupeptin (1 μM) was used as a positive inhibitory control.

[5] = tested on: zonula occludens-1 and occludin in B11 gingival keratinocytes; test: Immunofluorescent staining of zonula occludens-1 and occludin; type: cell-based, human; conditions: no challenge; Example 3, FIGS. 8, 11, 14
Method: as §3, with “The cells were incubated with 2.5 μg/mL of either occludin antibody-Alexa Fluor® 488 conjugate or ZO-1 antibody-Alexa Fluor® 594 conjugate in blocking buffer overnight at 4° C.” left out
The localization of the tight junction proteins in B11 cells was visualized using an Olympus FSX100 fluorescence microscope and FSX-BSW imaging software (Olympus, Tokyo, Japan).

[6] = tested on: B11 immortalized human gingival keratinocyte cell line; test: Paracellular permeability to FITC-dextran (FD-4); type: cell-based; conditions: no challenge; over 48 h; FIGS. 7, 10, 13
Method: as §1, §2

Compound	paracellular permeability to FITC-dextran with P. gingivalis [1]	immunofluorescence of tight junction proteins with P. gingivalis [2]	inhibition of hemolytic activity of P. gingivalis [3]	inhibition of P. gingivalis collagenase activity [4]	immunofluorescence of tight junction proteins (Occludin, Zonula Occludens-1) [5]	paracellular permeability to FITC-dextran [6]
[O]=[Zn] [zinc oxide]	decreased with the increase in concentration of zinc oxide	protects barrier integrity from the deleterious effects caused by the presence of P. gingivalis	inhibited P. gingivalis hemolysis	inhibits collagenase activity of P. gingivalis in a dose response manner	enhances barrier integrity	decreased with the increase in concentration of zinc oxide
O=C([O-])CC(O)(CC(=O)[O-])C(=O)[O-].O=C([O-])CC(O)(CC(=O)[O-])C(=O)[O-].[Zn+2].[Zn+2].[Zn+2] [zinc citrate]	decreased with the increase in concentration of zinc citrate	protects barrier integrity from the deleterious effects caused by the presence of P. gingivalis	inhibited P. gingivalis hemolysis	inhibits collagenase activity of P. gingivalis in a dose response manner	enhances barrier integrity	decreased with the increase in concentration of zinc citrate
